Broadly, the EC50 is the concentration needed to bring the measured effect to its halfway point.

Consider 18 molecules from patent publication US10792282B2, “Protein kinase C inhibitors and uses thereof” (Rigel Pharmaceuticals, Inc., priority 2013, dated 2020).

The test relates to PKC mediated IL-2 production. In words: IL-2 ELISA, human primary T cell, anti CD3+CD28+ (whole cell functional assay). It counts as cell-based. On the procedure: Human primary T cells were prepared as follows. Fresh PBMC's from All Cells (Cat # PB002) were re-suspended in RPMI (RPMI-1640 with L-Glutamine; Mediatech, Inc., Herndon Va., cat. #10-040-CM) with 10% FBS and seeded into flasks and incubated at 37° C. for 2 hours to allow the monocytes to adhere. The non-adherent cells were then centrifuged and re-suspended in RPMI medium containing 40 U/ml IL2 and seeded into a flask pre-coated with 1 μg/ml aCD3 and 5 ug/ml aCD28 (Anti-Human CD3, BD Pharmingen Catalog #555336, Anti-Human CD28, Beckman Coulter Catalog # IM1376). The cells were stimulated for 3-4 days, then transferred to a fresh flask and maintained in RPMI (RPMI-1640 with L-Glutamine; Mediatech, Inc., Herndon Va., cat. #10-040-CM) with 10% FBS and 40 U/ml IL-2.
(§1) Human primary T cells (100,000 cells per well) were pre-incubated with or without test compound in RPMI-1640 with L-Glutamine and 10% FBS for 1 hour at 37° C. Cells were then stimulated by transferring them to round-bottom 96-well plates pre-coated with 1 μg/ml αCD3 and 5 μg/ml αCD28. For counter assay, cells were instead stimulated by adding 8× stock solutions of PMA and ionomycin in RPMI-1640 with L-Glutamine and 10% FBS (for final concentrations of 0.5 ng/ml PMA and 0.1 μM ionomycin, both from Calbiochem). Cells were incubated at 37° C. for 24 hours before 100 μL supernatants were harvested for quantification of IL-2 by ELISA using Human IL-2 Duoset ELISA Kit from R and D Systems, Cat. # DY202E.
Compounds 1-90 were tested in a whole cell functional assay for PKC mediated IL-2 production as follows. Human primary T cell isolation and culture: Human primary T cells were prepared as follows. Whole blood was obtained from a healthy volunteer, mixed 1:1 with PBS, layered on to Ficoll Hypaque (Amersham Pharmacia Biotech, Piscataway, N.J., Catalog #17-1440-03) in 2:1 blood/PBS:ficoll ratio and centrifuged for 30 minutes at 4° C. at 1750 rpm. The cells at the serum: ficoll interface were recovered and washed twice with 5 volumes of PBS. These freshly isolated human peripheral blood mononuclear cells were cultured in Yssel's medium containing 40 U/ml IL2 in a flask pre-coated with 1 μg/ml αCD3 and 5 μg/ml αCD28 (Anti-Human CD3, BD Pharmingen Catalog #555336, Anti-Human CD28, Beckman Coulter Catalog # IM1376). The cells were stimulated for 3-4 days, then transferred to a fresh flask and maintained in RPMI (RPMI-1640 with L-Glutamine; Mediatech, Inc., Herndon Va., cat. #10-040-CM) with 10% FBS and 40 U/ml IL-2. The primary T-cells were then washed twice with PBS to remove the IL-2.
as §1, with “Primary T cell stimulation and IL2 ELISA: Human primary” for “Human primary”, “compound in Yssel's medium for 1” for “compound in RPMI-1640 with L-Glutamine and 10% FBS for 1”, “ionomycin in Yssels (for final” for “ionomycin in RPMI-1640 with L-Glutamine and 10% FBS (for final”, “and 0.1 uM ionomycin, both” for “and 0.1 μM ionomycin, both”
In general terms: ELISA stands for enzyme-linked immunosorbent assay.

Where [1] appears, read: Homo sapiens, T-cell, 24 h, IL-2 production, human primary T cells stimulated with αCD3 and αCD28, 24 hours, IL-2 by ELISA, read-out: EC50.
Setting [2] is: Homo sapiens, T-cell, human primary T cells stimulated with αCD3 and αCD28, IL-2 by ELISA, read-out: EC50 (blocked IL-2 production).
Where [3] appears, read: IL-2 production, human primary T cells stimulated with αCD3 and αCD28, 24 hours, IL-2 by ELISA, read-out: EC50.

Like-named read-outs stand apart in the source and are kept apart here.

As to `Cn1nnn(-c2cc(Nc3ncc(F)c(NC4CCN5CCCC5C4)n3)c(F)cc2C2CC2)c1=O` (racemic) [Compound 27, (±)-1-(5-(5-fluoro-4-(octahydroindolizin-7-ylamino)pyrimidin-2-ylamino)-2-cyclopropyl-4-fluorophenyl)-4-methyl-1H-tetrazol-5(4H)one], the EC50 is, setting by setting: under setting [1], less than 10 µM; under setting [2], less than 10 µM. On to `Cn1nnn(-c2cc(Nc3ncc(F)c(N[C@@H]4C[C@@H]5CCCN5C(C)(C)C4)n3)ccc2OC(C)(C)CO)c1=O` [Compound 86, 1-(2-(1-hydroxy-2-methylpropan-2-yloxy)-5-(4-((7R,8aS)-octahydro-5,5-dimethylindolizin-7-ylamino)-5-fluoropyrimidin-2-ylamino)phenyl)-4-methyl-1H-tetrazol-5(4H)-one], for which the EC50 is, setting by setting: under setting [1], less than 0.1 µM; under setting [2], less than 10 µM. For `CC1(C)CC(Nc2nc(Nc3ccc(O[C@@H]4CCOC4)c(C#N)c3)ncc2F)CC2CCCN21` (stereo partly drawn) [Compound 57, 2-((R)-tetrahydrofuran-3-yloxy)-5-(5-fluoro-4-(octahydro-5,5-dimethylindolizin-7-ylamino)pyrimidin-2-ylamino)benzonitrile], the EC50 runs as follows: under setting [1], less than 0.5 µM; under setting [2], less than 10 µM. For `Cn1nnn(-c2cc(Nc3ncc(F)c(N[C@@H]4C[C@@H]5C[C@@H](F)CN5C(C)(C)C4)n3)c(F)cc2C2CC2)c1=O` [Compound 64, 1-(5-(4-((2R,7R,8aR)-2-fluoro-octahydro-5,5-dimethylindolizin-7-ylamino)-5-fluoropyrimidin-2-ylamino)-2-cyclopropyl-4-fluorophenyl)-4-methyl-1H-tetrazol-5(4H)-one], the EC50 was less than 0.5 µM under setting [1] and less than 10 µM under setting [2].

For the molecule `Cn1nnn(-c2cc(Nc3ncc(F)c(NC4CC5CCCN5C(C)(C)C4)n3)ccc2O[C@H]2CCOC2)c1=O` (stereo partly drawn) [Compound 49, 1-(2-((S)-tetrahydrofuran-3-yloxy)-5-(5-fluoro-4-(octahydro-5,5-dimethylindolizin-7-ylamino)pyrimidin-2-ylamino)phenyl)-4-methyl-1H-tetrazol-5(4H)-one], the EC50 under setting [1] was less than 0.1 µM and the EC50 under setting [2] was less than 10 µM. For the molecule `Cn1nnn(-c2cc(Nc3ncc(F)c(N[C@@H]4C[C@@H]5CCC(=O)N5C(C)(C)C4)n3)c(F)cc2C2CC2)c1=O` (racemic) [Compound 31, 1-(5-(5-fluoro-4-(hexahydro-5,5-dimethylindolizin-3(5H)-one-7-ylamino)pyrimidin-2-ylamino)-2-cyclopropyl-4-fluorophenyl)-4-methyl-1H-tetrazol-5(4H)-one], the EC50 runs as follows: under setting [1], less than 10 µM; under setting [2], less than 10 µM.

Take `CC1(C)CC(Nc2nc(Nc3ccc(O[C@@H]4CCOC4)c(C#N)c3)ncc2F)CC2CCCN21` (single isomer, unassigned) [Compound 59]: the EC50 under setting [3] is less than 0.5 µM. Take `COc1cc(Nc2ncc(F)c(NC3CC4CCCN4C(C)(C)C3)n2)cc(-n2nnnc2C)c1` (stereo not shown) [Compound 11, (R/S, S/R, R/R, S/S)-5-fluoro-N4-(octahydro-5,5-dimethylindolizin-7-yl)N2-(3-methoxy-5-(5-methyl-1H-tetrazol-1-yl)phenyl)pyrimidine-2,4-diamine]: the EC50 under setting [3] was less than 10 µM. Regarding `Cn1nnn(-c2cc(Nc3ncc(F)c(N[C@@H]4C[C@@H]5CCCN5C(C)(C)C4)n3)ccc2O[C@@H]2CCOC2)c1=O` [Compound 48, 1-(2-((R)-tetrahydrofuran-3-yloxy)-5-(5-fluoro-4-(octahydro-5,5-dimethylindolizin-7-ylamino)pyrimidin-2-ylamino)phenyl)-4-methyl-1H-tetrazol-5(4H)-one], the EC50 is less than 0.1 µM under setting [1] and less than 10 µM under setting [2].

In the case of `Cn1nnn(-c2cc(Nc3ncc(C#N)c(N[C@@H]4C[C@@H]5CCCN5C(C)(C)C4)n3)ccc2OC(C)(C)CO)c1=O` [Compound 83, 4-((7R,8aS)-octahydro-5,5-dimethylindolizin-7-ylamino)-2-(4-(1-hydroxy-2-methylpropan-2-yloxy)-3-(4,5-dihydro-4-methyl-5-oxotetrazol-1-yl)phenylamino)pyrimidine-5-carbonitrile], the EC50 under setting [1] was less than 0.1 µM and the EC50 under setting [2] was less than 10 µM. For the molecule `Cn1nnn(-c2cc(Nc3ncc(F)c(N[C@H]4CCN5[C@@H](CCC5(C)C)C4)n3)c(F)cc2C2CC2)c1=O` (single isomer, unassigned) [Compound 37], the EC50 under setting [3] was less than 10 µM. Turning to `Cc1nnnn1-c1cc(Nc2ncc(F)c(NC3CCN4CCCC4C3)n2)c(F)cc1C1CC1` (racemic) [Compound 28, (±)-N2-(4-cyclopropyl-2-fluoro-5-(5-methyl-1H-tetrazol-1-yl)phenyl)-5-fluoro-n^4-(octahydroindolizin-7-yl)pyrimidine-2,4-diamine], the EC50 under setting [1] was less than 0.1 µM and the EC50 under setting [2] is less than 10 µM. For `Fc1cc(C2CC2)c(-n2cnnn2)cc1Nc1ncc(F)c(NC2CCN3CCCC3C2)n1` (racemic) [Compound 24, (±)-N^2-(4-cyclopropyl-2-fluoro-5-(1H-tetrazol-1-yl)phenyl)-5-fluoro-n^4-(octahydroindolizin-7-yl)pyrimidine-2,4-diamine], in that order: less than 0.5 µM and less than 10 µM. Turning to `CC(C)Oc1cc(F)c(Nc2ncc(F)c(N[C@@H]3C[C@@H]4CCCN4C(C)(C)C3)n2)cc1-n1nnn(C)c1=O` [Compound 23, 1-(5-(4-((7R,8aS)-5,5-dimethyl-octahydroindolizin-7-ylamino)-5-fluoropyrimidin-2-ylamino)-4-fluoro-2-isopropoxyphenyl)-4-methyl-1H-tetrazol-5(4H)-one], the half-maximal effective concentration (EC50) under setting [1] was less than 0.1 µM and the EC50 under setting [2] was less than 10 µM.

Turning to `Cn1nnn(-c2cc(Nc3ncc(F)c(NC4CCN5C(CCC5(C)C)C4)n3)c(F)cc2C2CC2)c1=O` (single isomer, unassigned) [Compound 34, 1-(5-(5-fluoro-4-(octahydro-3,3-dimethylindolizin-7-ylamino)pyrimidin-2-ylamino)-2-cyclopropyl-4-fluorophenyl)-4-methyl-1H-tetrazol-5(4H)-one], the EC50 reads like this: under setting [1], less than 10 µM; under setting [2], less than 10 µM.

Take `CC(C)N1CCC(Oc2ccc(Nc3ncc(F)c(NC4CC5CCCN5C(C)(C)C4)n3)cc2OC(F)F)CC1` (stereo not shown) [Compound 6, (R/S, S/R, R/R, S/S)—N^2-(4-(1-isopropylpiperidin-4-yloxy)-3-(difluoromethoxy)phenyl)-5-fluoro-N^4-(octahydro-5,5-dimethylindolizin-7-yl)pyrimidine-2,4-diamine]: the EC50 under setting [3] is less than 0.5 µM. Take `Cn1nnn(-c2cc(Nc3ncc(C#N)c(NC4CC5CCCN5C(C)(C)C4)n3)c(F)cc2C2CC2)c1=O` (stereo not shown) [Compound 66, 4-((R/S,S/R)-Octahydro-5,5-dimethylindolizin-7-ylamino)-2-(4-cyclopropyl-2-fluoro-5-(4,5-dihydro-4-methyl-5-oxotetrazol-yl)phenylamino) pyrimidine-5-carbonitrile]: the concentration for a half-maximal effect (EC50) under setting [3] was less than 0.1 µM. In the case of `CC1C(Nc2nc(Nc3cc(-n4nnn(C)c4=O)c(C4CC4)cc3F)ncc2F)CC(C)(C)N2CCCC12` (single isomer, unassigned) [Compound 69, 1-(5-(5-Fluoro-4-(octahydro-5,5,8-trimethylindolizin-7-ylamino)pyrimidin-2-ylamino)-2-cyclopropyl-4-fluorophenyl)-4-methyl-1H-tetrazol-5(4H)-one], the EC50 under setting [1] was less than 1 µM and the EC50 under setting [2] was less than 10 µM.
